How the values were obtained:
E. coli = assay: Additional prebiotic screening against E. coli; assay type: cell-based, Escherichia coli; conditions: for # fermented, Ec-1 / # grew, Ec-1: E. coli KC16-7171-8, Bladder; for # fermented, Ec-1 / # grew, Ec-1 / # fermented, Ec-2 / # grew, Ec-2 / # fermented, Ec-3 / # grew, Ec-3 / # fermented, Ec-4 / # grew, Ec-4 / # fermented, Ec-5 / # grew, Ec-5: of 2 tested; for # fermented, Ec-2 / # grew, Ec-2: E. coli KC17-3969-1, Bladder; for # fermented, Ec-3 / # grew, Ec-3: E. coli KC17-3970-4, Vagina; for # fermented, Ec-4 / # grew, Ec-4: E. coli KC17-4296-4, Vagina; for # fermented, Ec-5 / # grew, Ec-5: E. coli KC17-4297-5, Bladder; for growth or fermentation of E. coli, in words: E. coli from vaginal or bladder source
Excerpt: Additional screening of three prebiotic compounds of alpha-methyl-D-glucoside, isomaltulose, and alpha cyclodextrin was completed against pathogenic bacteria species Escherichia coli from both bladder and vaginal sources, as shown in Table 4. The growth of the bacterial species for this additional screening process against E. coli was not compared to growth of a control as in the screening process documented in Table 3, but was documented based on growth or no growth for the number of samples tested.
• 1. Create a 2% w/v stock of prebiotic or positive control (glucose/dextrose) to be tested in API 50 CHL media (Biomerieux, Marcy-I'Étoile, France). API 50 CHL media contains minimal amounts of carbon for growth, and a bromocresol purple as a pH indicator of fermentation. Filter sterilize media with a […]. Store at 4-6° C. until use. • 2. Add 180 μL of media containing the prebiotic to a sterile, flat bottom 96-well microtiter plate (Corning, Corning, NY). • 3. From a freezer stock subculture the bacteria twice into De Man, Rogosa and Sharpe (MRS) broth (BD Difco, Becton Dickinson, Franklin Lakes, NJ), 37° C., stationary, anaerobic, overnight. • 4. From the last subculture, plate onto an MRS agar plate (Teknova, Hollister, CA) and grow 37° C., stationary, anaerobic, overnight. • 5. Create a bacterial suspension by using a sterile tipped swab to transfer colonies of bacteria into a PBS suspension blank to a 0.5 MacFarland (S. anginosus or E. faecalis) or a 1 MacFarland (Lactobacillus species) from the MRS agar plate. • 6. Enumerate the starting culture. • 7. Inoculate the media alone and media containing the prebiotic or positive control with 20 μL of the bacterial suspension. • 8. Place the plate into a spectrophotometer (Molecular Devices, San Jose, CA) and read the plate every 20 minutes for 24-48 hours. Read wavelengths (OD 430, OD 590, and OD 660). A color change to yellow caused by a drop in pH will be read by an increase in the OD430 value and a decrease in the OD590 value and is indicative of bacterial fermentation. An increase in OD660 values is indicative of an increase in turbidity and bacterial growth.

[1] = test system: commensal and pathogenic bacterial species; assay: Prebiotic screening, summary in words across species; assay type: cell-based; conditions: commensal (L. crispatus, L. gasseri, L. jensenii) and pathogenic (S. anginosus, E. faecalis) species
Summary of the method: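 Prebiotics at 2% w/v stock in API 50 CHL medium with bromocresol purple, inoculated with bacteria and read every 20 min for 24-48 h at OD430/590 (fermentation) and OD660 (growth), scored against a glucose control. Some tested on MRS-based agar with the prebiotic in place of glucose; competition assay with L. crispatus and S. anginosus incubated 48 h anaerobically at 37 °C, then enumerated on MRS and TSA.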

| Structure (SMILES) | # fermented, Ec-1 (E. coli) | # grew, Ec-1 (E. coli) | # fermented, Ec-2 (E. coli) | # grew, Ec-2 (E. coli) | # fermented, Ec-3 (E. coli) | # grew, Ec-3 (E. coli) | # fermented, Ec-4 (E. coli) | # grew, Ec-4 (E. coli) | # fermented, Ec-5 (E. coli) | # grew, Ec-5 (E. coli) | growth or fermentation of E. coli, in words (E. coli) | overall outcome of the screening of Table 3, in words [1] |
| --- | --- | --- | --- | --- | --- | --- | --- | --- | --- | --- | --- | --- |
| CO[C@H]1O[C@H](CO)[C@@H](O)[C@H](O)[C@H]1O [Alpha-Methyl-D-Glucoside] | 0 | 0 | 0 | 0 | 0 | 0 | 0 | 0 | 0 | 0 | did not grow or ferment | growing at least some of the commensal bacterial species and either having less growth than the positive control or almost no growth of the pathogenic bacterial species |
| OC[C@H]1O[C@H](OC[C@H]2OC(O)(CO)[C@@H](O)[C@@H]2O)[C@H](O)[C@@H](O)[C@@H]1O (stereo partly drawn) [Palatinose (isomaltulose), isomaltulose] | 0 | 0 | 0 | 0 | 0 | 0 | 0 | 0 | 0 | 0 | did not grow or ferment | growing at least some of the commensal bacterial species and either having less growth than the positive control or almost no growth of the pathogenic bacterial species |

— patent publication US20230293560A1, “METHOD FOR MODULATING THE BLADDER MICROBIOME TO IMPROVE BLADDER HEALTH” (Kimberly-Clark Worldwide, Inc., priority 2020, published 2023)
